Paper PMC7391456, “Targeting fibroblast activation protein (FAP): next generation PET radiotracers using squaramide coupled bifunctional DOTA and DATA^5m chelators” (EJNMMI Radiopharmacy and Chemistry, 2020)
“And” between values parts separate entries of the source, which are not always exact repeats. Equal entries are not always repeated. One block for each compound: values may come before it.

Key:
[1] = Stability studies of gallium-68 complexes in media (EtOH, human serum, saline, PBS); format: physicochemical
Description: (§1) Gallium-68 stability studies against transmetallation (Fe, Cu, Ca, Mg), transchelation (EDTA, DTPA) as well as in HS, EtOH and saline (0.9% isotone NaCl-solution) were performed. 50 μl of the [^68Ga]Ga-DOTA.SA.FAPi labeling solution with > 95% radiochemical purity were added to 1 mL of the respective media. The measured time points for gallium-68 were 15, 30, 45, 60, 90, 120 min. HS (human male AB plasma, USA origin) was bought from Sigma Aldrich, PBS was purchased from Sigma Aldrich and 0.9% saline from B. Braun Melsungen AG (Melsungen, Germany).

[2] = biological target: T1, Human recombinant PREP (Homo sapiens, UniProt P48147); test: PREP inhibition assay (IC50, N-succinyl-Gly-Pro-AMC substrate); format: biochemical; conditions: N-succinyl-Gly-Pro-AMC 250 μM, pH 7.4, 15 min pre-incubation at 37 °C
T1 sequence (P48147 1-710): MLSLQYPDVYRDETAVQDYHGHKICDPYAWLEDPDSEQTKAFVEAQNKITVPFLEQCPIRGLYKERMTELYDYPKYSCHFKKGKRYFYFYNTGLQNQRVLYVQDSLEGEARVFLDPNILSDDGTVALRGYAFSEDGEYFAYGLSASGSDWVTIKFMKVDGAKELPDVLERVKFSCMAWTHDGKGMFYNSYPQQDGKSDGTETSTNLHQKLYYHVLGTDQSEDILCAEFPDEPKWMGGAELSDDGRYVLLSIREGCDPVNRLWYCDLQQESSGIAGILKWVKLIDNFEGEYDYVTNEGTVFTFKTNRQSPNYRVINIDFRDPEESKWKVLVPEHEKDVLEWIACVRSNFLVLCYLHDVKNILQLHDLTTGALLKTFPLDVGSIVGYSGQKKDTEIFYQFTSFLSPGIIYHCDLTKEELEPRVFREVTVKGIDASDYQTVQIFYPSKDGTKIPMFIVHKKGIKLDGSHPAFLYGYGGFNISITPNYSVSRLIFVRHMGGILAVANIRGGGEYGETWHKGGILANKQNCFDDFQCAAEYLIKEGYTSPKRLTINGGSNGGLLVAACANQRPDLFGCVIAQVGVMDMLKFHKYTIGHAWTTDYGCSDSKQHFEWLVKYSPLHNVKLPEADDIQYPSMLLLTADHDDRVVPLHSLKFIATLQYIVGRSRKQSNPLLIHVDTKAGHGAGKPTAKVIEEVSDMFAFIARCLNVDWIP
Text: (§2) Enzymes: A gateway-entry clone for human FAP was purchased from Dharmacon (Accession number DQ891423) and the human secretion signal was replaced with the HoneyBee mellitin secretion signal. For transfection and expression of FAP in Sf9 insect cells, the C-terminal BaculoDirect kit from LifeTechnologies was used. The enzyme was purified from the supernatant of the insect cells using immobilized Ni-chelating chromatography (GE healthcare, Diegem, Belgium), followed by anion-exchange chromatography using a 1 mL HiTrap Q (GE healthcare, Diegem, Belgium). Human recombinant PREP was expressed in BL21(DE3) cells and purified using immobilized Co-chelating chromatography (GE healthcare) followed by anion-exchange chromatography on a 1 ml Mono Q column (GE healthcare).
(§3) Eight concentrations of inhibitors were tested. The final DMSO concentration is kept constant during the experiment to exclude any effects. Inhibitors were pre-incubated with the enzyme for 15 min at 37 °C, afterwards the substrate was added and the velocities of AMC release were measured kinetically at λex = 380 nm, λem = 465 nm for at least 10 min at 37 °C. The Infinite 200 (Tecan Group Ltd.) micro-titer plate reader and the Magellan software were used for measurement and data processing, respectively.
(§4) The data were fitted using a non-linear fit model in GraFit 7 software, according to the following equation: y=range/1+x/IC50^s where y is the value of the residual enzymatic activity compared to a non-inhibited sample, x is the final inhibitor concentration in the assay, s is the slope factor and the IC50 is the half maximal inhibitory concentration.

[3] = biological target: T2, human FAP (Homo sapiens, UniProt Q12884); test: FAP inhibition assay (IC50, Z-Gly-Pro-AMC substrate); format: biochemical; conditions: for IC50: Z-Gly-Pro-AMC 50 μM, pH 8, 15 min pre-incubation at 37 °C; for Selectivity index (IC50 PREP / IC50 FAP): ratio of the IC50 values for FAP and PREP
T2 construct: the human secretion signal was replaced with the HoneyBee mellitin secretion signal; HoneyBee mellitin secretion signal (replaces the native signal-anchor) (N); C-terminal tag of the BaculoDirect C-term kit (C); made in house; host or cells: Sf9 insect cells (baculovirus); purified from the supernatant
T2 sequence (Q12884 26-760 limits assumed): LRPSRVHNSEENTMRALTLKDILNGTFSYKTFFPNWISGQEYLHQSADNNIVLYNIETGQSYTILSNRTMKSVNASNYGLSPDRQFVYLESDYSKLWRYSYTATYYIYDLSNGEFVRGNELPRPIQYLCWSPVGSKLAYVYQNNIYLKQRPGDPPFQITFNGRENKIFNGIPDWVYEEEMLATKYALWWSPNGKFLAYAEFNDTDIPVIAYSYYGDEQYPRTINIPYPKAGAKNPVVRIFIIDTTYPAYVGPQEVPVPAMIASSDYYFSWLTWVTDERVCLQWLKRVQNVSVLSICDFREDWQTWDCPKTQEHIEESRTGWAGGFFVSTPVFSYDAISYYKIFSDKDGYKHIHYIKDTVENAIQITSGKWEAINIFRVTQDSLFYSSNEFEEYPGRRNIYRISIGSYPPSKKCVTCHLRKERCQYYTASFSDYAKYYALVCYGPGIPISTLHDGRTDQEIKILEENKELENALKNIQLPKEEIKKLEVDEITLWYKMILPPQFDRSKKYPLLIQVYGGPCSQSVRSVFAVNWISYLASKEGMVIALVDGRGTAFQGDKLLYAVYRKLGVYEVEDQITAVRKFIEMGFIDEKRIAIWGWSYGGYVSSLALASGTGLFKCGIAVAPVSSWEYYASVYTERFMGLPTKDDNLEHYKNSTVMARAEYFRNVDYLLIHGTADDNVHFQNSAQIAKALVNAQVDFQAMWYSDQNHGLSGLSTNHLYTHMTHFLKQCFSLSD
Text: as §2
as §3, with “was” for “is”, “any solvent” for “any”, “processing” for “processing,”
as §4

[4] = Gallium-68 stability against transmetallation (Fe, Cu, Ca, Mg) and transchelation (EDTA, DTPA); format: physicochemical
Description: as §1

[5] = tested on: HT-29 xenograft mice; test: Micro-PET/CT imaging in HT-29 tumor-bearing mice; format: in vivo, mouse; conditions: PET 60 min p.i.
Description: (§5) In vivo tumor model: HT-29 (human colon adenocarcinoma, ATCC, Rockville, Maryland) cells were routinely cultured in Dulbecco’s Modified Eagle Medium supplemented with 10% heat inactivated foetal bovine serum (FBS), 2 mM glutamine, 1% sodium pyruvate and 1% penicillin/streptomycin (Gibco, Life technologies). After detaching the cells, the number of viable cells was counted with the automated Muse™ Cell Analyzer (Merck Millipore). For the HT-29 subcutaneous model, 10.10^6 viable cells, suspended in 100 μl PBS, were inoculated in the right hind leg of female 6-week-old CD1^−/− Foxn1nu mice (n = 3), obtained from Charles River Laboratories (L’Arbresle, France). The animals were kept under environmentally controlled conditions (12 h light/dark cycle, 20–24 °C and 40–70% relative humidity) with food and water ad libitum. When tumors reached an approximate volume of 400 mm^3, 3 mice underwent μPET imaging. All experimental procedures and protocols were performed in accordance with European Directive 86/609/EEC Welfare and Treatment of Animals and were approved by the local ethical commission (2017–070, University of Antwerp, Belgium).
Micro-PET imaging: Micro-PET scans were carried out using an Inveon small-animal PET/CT scanner (Siemens), after i.v. injection of 4 nmol of [^68Ga]-DOTA.SA.FAPi (8.6 MBq, molar activity of 2.1 GBq/ μmol) into tumor bearing mice (n = 3), under isoflurane anesthesia (5% for induction, 2% for maintenance). Static whole-body PET images were acquired 60 min after injection of the radiotracer. Following each PET acquisition, a whole-body CT scan was acquired to obtain the animal’s anatomical information individually.
For quantitative analysis, PET data were reconstructed using 3-dimensional ordered subset expectation maximization (OSEM3D, 16 subsets and 2 iterations) and 18 maximum a posteriori (MAP) iterations including scatter and attenuation correction (matrix size, 128 × 128 × 159; voxel size, 0.776 × 0.776 × 0.776 mm;). Volumes of interest (VOIs) were manually drawn on the PET/CT images using PMOD (version 3.6; PMOD Technologies) to delineate the tumor, heart and muscle.

[6] = tested on: HT-29 xenograft mice; test: Ex vivo biodistribution in HT-29 xenograft mice; set-up: species or system mouse
Description: as §5
Ex vivo biodistribution: Immediately after the CT scans, the animals were sacrificed, the blood, tissues and organs were collected, weighed and the radioactivity was measured using an automatic γ-counter (Wizard^2 2480, PerkinElmer). Values were expressed as percentage of the injected dose per gram (%ID/g).

[7] = HT-29 xenograft mice, 1 h p.i., N=3
[8] = ex vivo biodistribution, 1 h p.i.

SMILES: CN(CC(=O)O)C1(CCCCC(=O)NCCNc2c(NCCCCOc3ccc4nccc(C(=O)NCC(=O)N5CC(F)(F)C[C@H]5C#N)c4c3)c(=O)c2=O)CN(CC(=O)O)CCN(CC(=O)O)C1 [DATA^5m.SA.FAPi, (S)-2,2′-(6-((carboxymethyl)(methyl)amino)-6-(5-((2-((2-((4-((4-((2-(2-cyano-4,4-difluoropyrrolidin-1-yl)-2-oxoethyl)carbamoyl)quinolin-6-yl)oxy)butyl)amino)-3,4-dioxocyclobut-1-en-1-yl)amino)ethyl)amino)-5-oxopentyl)-1,4-diazepane-1,4-diyl) diacetic acid]
Stability in different media, intact conjugate ([1]; different media (summary statement)): more than 95% | IC50 [2]: 1700 ± 100 nM | IC50 [3]: 0.8 ± 0.2 nM | Selectivity index (IC50 PREP / IC50 FAP) [3]: 2113

SMILES: CN(CC(=O)[O-])C1(CCCCC(=O)NCCNc2c(NCCCCOc3ccc4nccc(C(=O)NCC(=O)N5CC(F)(F)C[C@H]5C#N)c4c3)c(=O)c2=O)CN(CC(=O)[O-])CCN(CC(=O)[O-])C1.[Ga+3] [[^natGa]Ga-DATA^5m.SA.FAPi]
IC50 [2]: 4700 ± 300 nM | IC50 [3]: 0.7 ± 0.1 nM | Selectivity index (IC50 PREP / IC50 FAP) [3]: 6714

SMILES: CN(CC(=O)[O-])C1(CCCCC(=O)NCCNc2c(NCCCCOc3ccc4nccc(C(=O)NCC(=O)N5CC(F)(F)C[C@H]5C#N)c4c3)c(=O)c2=O)CN(CC(=O)[O-])CCN(CC(=O)[O-])C1.[68Ga+3] [[^68Ga]Ga-DATA^5m.SA.FAPi]
Stability, intact conjugate ([1]; human serum (HS), over 2 h): > 95% | Stability, intact conjugate ([1]; phosphate buffered saline (PBS), over 120 min): > 95% | Stability, intact conjugate ([1]; saline 0.9% (NaCl), over 2 h): > 95%

Now from value to compound:

IC50 [2]: 8700 ± 900 nM | IC50 [3]: 1.4 ± 0.2 nM
SMILES: N#C[C@@H]1CC(F)(F)CN1C(=O)CNC(=O)c1ccnc2ccc(OCCCCNc3c(NCCNC(=O)CN4CCN(CC(=O)[O-])CCN(CC(=O)[O-])CCN(CC(=O)[O-])CC4)c(=O)c3=O)cc12.[Ga+3] [[^natGa]Ga-DOTA.SA.FAPi]

Stability, intact conjugate ([1]; ethanol (EtOH), over 2 h at 37 °C): over 98% | Stability, intact conjugate ([1]; human serum (HS), over 2 h): over 98% | Stability, intact conjugate ([1]; saline 0.9% (NaCl), over 2 h): over 98% | Stability against transmetallation ([4]; against Ca, after 2 h): > 95% | Stability against transmetallation ([4]; against Cu, after 2 h): > 95% | Stability against transchelation ([4]; against DTPA, after 2 h): over 98% | Stability against transchelation ([4]; against EDTA, after 2 h): over 98% | Stability against transmetallation ([4]; against Fe, after 90 min): > 95% | Stability against transmetallation ([4]; against Fe, after 2 h): over 92% | Stability against transmetallation ([4]; against Mg, after 2 h): > 95% | SUVmean heart [5]: 0.15 ± 0.01 and 0.15 | SUVmean kidneys [5]: 0.27 ± 0.11 and 0.27 | SUVmean liver [5]: 0.22 ± 0.08 and 0.22 | SUVmean muscle [5]: 0.18 ± 0.07 and 0.18 | SUVmean small intestine [5]: 0.37 ± 0.14 | SUVmean tumor [5]: 0.75 ± 0.09 and 0.75 | Ex vivo biodistribution, Tumor ([6]; HT-29 xenograft mice, 1 h (60 min) p.i., N=3): 5.2 %ID/g | Ex vivo biodistribution, Bladder [6, 7]: 0.96 %ID/g | Ex vivo biodistribution, Blood [6, 7]: 0.56 %ID/g | Ex vivo biodistribution, Bone [6, 7]: 3.56 %ID/g | Ex vivo biodistribution, Brain [6, 7]: 1.27 %ID/g | Ex vivo biodistribution, Fat [6, 7]: 0.38 %ID/g | Ex vivo biodistribution, Heart [6, 7]: 0.22 %ID/g | Ex vivo biodistribution, Kidneys [6, 7]: 1.77 %ID/g | Ex vivo biodistribution, Large Intestine [6, 7]: 0.21 %ID/g | Ex vivo biodistribution, Liver [6, 7]: 0.70 %ID/g | Ex vivo biodistribution, Lungs [6, 7]: 0.33 %ID/g | Ex vivo biodistribution, Muscle [6, 7]: 0.45 %ID/g | Ex vivo biodistribution, Pancreas [6, 7]: 0.51 %ID/g | Ex vivo biodistribution, Skin [6, 7]: 0.04 %ID/g | Ex vivo biodistribution, Small Intestine [6, 7]: 1.81 %ID/g | Ex vivo biodistribution, Spleen [6, 7]: 0.23 %ID/g | Ex vivo biodistribution, Stomach [6, 7]: 0.21 %ID/g | tumor-to-blood ratio [6, 8]: 9.2 ± 1.1 | tumor-to-bone ratio [6, 8]: 1.5 ± 0.2 | tumor-to-large intestine ratio [6, 8]: 24.9 ± 1.7 | tumor-to-muscle ratio [6, 8]: 11.5 ± 2.2 | tumor-to-small intestine ratio [6, 8]: 2.9 ± 0.8
SMILES: N#C[C@@H]1CC(F)(F)CN1C(=O)CNC(=O)c1ccnc2ccc(OCCCCNc3c(NCCNC(=O)CN4CCN(CC(=O)[O-])CCN(CC(=O)[O-])CCN(CC(=O)[O-])CC4)c(=O)c3=O)cc12.[68Ga+3] [[^68Ga]Ga-DOTA.SA.FAPi]
